{"source": "paper PMC12394658", "about": "“Discovery of Zharp1-163 as a dual inhibitor of ferroptosis and necroptosis for the treatment of inflammatory disorders and kidney injury” (Cell Death Discovery, 2025)", "key": {"CHK1": {"biological_target": "T1, CHK1 (Homo sapiens, UniProt O14757)", "T1 construct": "gene CHEK1", "T1 sequence (O14757 whole entry)": "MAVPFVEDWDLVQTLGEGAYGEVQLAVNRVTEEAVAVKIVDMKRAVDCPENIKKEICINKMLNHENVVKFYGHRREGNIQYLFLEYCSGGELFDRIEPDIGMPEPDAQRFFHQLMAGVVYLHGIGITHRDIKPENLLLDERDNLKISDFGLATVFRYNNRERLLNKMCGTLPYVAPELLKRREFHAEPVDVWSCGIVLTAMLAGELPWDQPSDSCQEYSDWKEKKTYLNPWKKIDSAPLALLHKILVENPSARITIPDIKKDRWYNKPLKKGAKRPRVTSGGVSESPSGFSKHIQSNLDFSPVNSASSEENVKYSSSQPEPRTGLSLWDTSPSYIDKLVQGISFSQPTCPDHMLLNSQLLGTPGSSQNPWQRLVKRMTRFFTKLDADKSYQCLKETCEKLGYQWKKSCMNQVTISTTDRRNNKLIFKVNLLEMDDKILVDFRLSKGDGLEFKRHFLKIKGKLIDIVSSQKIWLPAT", "test": "biochemical", "set-up": "Kinase selectivity panel of 81 human kinases, ADP-Glo or HTRF, per cent inhibition at 1 uM", "procedure": "(§1) We next sought to determine the binding affinity of Zharp1-163 for RIPK1 or RIPK3 via a binding assay (Fig. 4A). […] Further, we evaluated the selectivity of Zharp1-163 against a panel of 81 kinases (at 1000 nM). […] To elucidate the binding interactions between Zharp1-163 and RIPK1 kinase, we conducted molecular docking studies using the RIPK1 crystal structure (PDB ID: 4NEU). The predicted binding conformations and interaction patterns between Zharp1-163 and the RIPK1 kinase domain are presented in Fig. 4D, E. Like the cocrystallized ligand in the 4NEU crystal complex, Zharp1-163 was predicted to act as a typical type II kinase inhibitor, interacting with the DLG (Asp156-Leu157-Gly158)-out conformation of RIPK1 (Fig. 4D, E). The 2-aminoimidazo [1,2-a] pyridine moiety of Zharp1-163 formed hydrogen bonds with Met95 in the hinge region. Furthermore, the carboxylate group of Zharp1-163 established hydrogen bonds with Asp156 in the DLG-out region. Additionally, the saturated ring of Zharp1-163 was deeply embedded within the hydrophobic allosteric pocket formed by the residues Met66, Met67, Leu70, Val76, Leu129, and Leu159, which is created by the DLG-out conformation in RIPK1 (Fig. 4D, E).  Fig. 4 Zharp1-163 is a selective inhibitor of RIPK1 kinase activity. A Binding affinity curve of Zharp1-163 with RIPK1 and RIPK3. B In an in vitro kinase activity assay, recombinant RIPK1 was incubated with Zharp1-163, after which RIPK1 kinase activity was determined by measuring ATP levels via a luciferase reporter assay system. […] Kinases are marked with dots, where the color of each kinase indicates the level of inhibition achieved by Zharp1-163. D Predicted binding conformation of Zharp1-163. E Schematic representation of the interaction patterns between Zharp1-163 and the key residues in the binding pocket of the RIPK1 kinase. […] NIH3T3-RIPK3 cells were pretreated with the indicated concentrations of Zharp1-163 for 2 h and then treated with AP20187 (100 nM) for 24 h. Cell viability was determined by measuring ATP levels. […] HeLa-MLKL (1–190) cells were pretreated with the indicated concentrations of Zharp1-163 for 2 h and subsequently treated with AP20187 (100 nM) for 24 h. Cell viability was determined by measuring ATP levels. H Viability of IFNβ-primed MEFs at 18 h after stimulation with poly(I:C) plus z-VAD and treatment with Zharp1-163 (10 μM). I Effects of different concentrations of Zharp1-163 on WT or RIPK1 KO HT-29 cells. Cell viability was determined by measuring ATP levels. The data are presented as the mean ± SD of triplicate samples."}, "PDGFRα": {"biological_target": "T2, PDGFRα (Homo sapiens, UniProt P16234)", "T2 construct": "gene PDGFRA", "T2 sequence (P16234 whole entry)": "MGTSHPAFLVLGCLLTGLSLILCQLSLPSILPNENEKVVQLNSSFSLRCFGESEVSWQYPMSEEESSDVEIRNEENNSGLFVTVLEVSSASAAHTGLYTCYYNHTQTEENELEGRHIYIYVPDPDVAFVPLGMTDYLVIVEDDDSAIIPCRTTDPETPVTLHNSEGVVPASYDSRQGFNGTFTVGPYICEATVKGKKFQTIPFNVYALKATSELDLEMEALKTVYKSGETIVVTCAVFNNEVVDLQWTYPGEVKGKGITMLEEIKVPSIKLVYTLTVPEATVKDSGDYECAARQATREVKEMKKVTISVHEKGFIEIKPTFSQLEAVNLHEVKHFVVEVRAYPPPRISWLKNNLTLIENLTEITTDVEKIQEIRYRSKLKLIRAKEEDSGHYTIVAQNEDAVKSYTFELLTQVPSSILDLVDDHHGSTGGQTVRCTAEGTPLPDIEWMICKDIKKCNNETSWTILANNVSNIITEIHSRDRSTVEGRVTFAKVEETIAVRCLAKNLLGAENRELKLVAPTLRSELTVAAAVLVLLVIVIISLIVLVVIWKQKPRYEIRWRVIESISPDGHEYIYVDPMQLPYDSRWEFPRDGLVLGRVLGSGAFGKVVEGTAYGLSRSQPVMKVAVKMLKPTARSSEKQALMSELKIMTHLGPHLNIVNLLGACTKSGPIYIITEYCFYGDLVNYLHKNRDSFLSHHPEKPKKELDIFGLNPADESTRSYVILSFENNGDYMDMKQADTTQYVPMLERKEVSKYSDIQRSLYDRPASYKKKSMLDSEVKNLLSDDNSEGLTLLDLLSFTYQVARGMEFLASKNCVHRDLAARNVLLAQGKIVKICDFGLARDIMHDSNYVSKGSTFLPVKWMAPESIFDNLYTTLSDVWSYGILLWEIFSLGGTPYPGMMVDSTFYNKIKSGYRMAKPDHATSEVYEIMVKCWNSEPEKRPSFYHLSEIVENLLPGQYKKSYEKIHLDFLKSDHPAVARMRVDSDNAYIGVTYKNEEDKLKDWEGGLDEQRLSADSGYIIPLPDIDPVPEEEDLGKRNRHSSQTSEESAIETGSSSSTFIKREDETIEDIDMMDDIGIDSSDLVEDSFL", "test": "biochemical", "set-up": "Kinase selectivity panel of 81 human kinases, ADP-Glo or HTRF, per cent inhibition at 1 uM", "procedure": "as §1"}, "AMPKα1/β1/γ1": {"biological_target": "T3, AMPKα1/β1/γ1 (Homo sapiens, UniProt Q13131)", "T3 construct": "gene PRKAA1", "T3 sequence (Q13131 whole entry)": "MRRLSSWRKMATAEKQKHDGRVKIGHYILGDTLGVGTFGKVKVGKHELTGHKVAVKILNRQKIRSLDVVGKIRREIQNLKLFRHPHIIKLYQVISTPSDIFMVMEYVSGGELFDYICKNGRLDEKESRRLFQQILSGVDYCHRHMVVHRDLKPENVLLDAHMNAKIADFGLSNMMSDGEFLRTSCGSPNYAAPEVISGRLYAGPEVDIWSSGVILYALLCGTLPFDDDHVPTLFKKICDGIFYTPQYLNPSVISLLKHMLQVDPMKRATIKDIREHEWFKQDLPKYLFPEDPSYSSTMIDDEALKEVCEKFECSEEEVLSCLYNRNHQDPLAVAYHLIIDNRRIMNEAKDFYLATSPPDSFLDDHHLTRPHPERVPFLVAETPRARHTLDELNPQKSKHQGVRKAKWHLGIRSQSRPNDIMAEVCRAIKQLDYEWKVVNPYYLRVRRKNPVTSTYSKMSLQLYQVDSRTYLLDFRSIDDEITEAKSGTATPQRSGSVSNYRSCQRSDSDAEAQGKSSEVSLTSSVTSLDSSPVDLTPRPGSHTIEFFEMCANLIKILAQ", "T3 sequence (P54619 whole entry partner)": "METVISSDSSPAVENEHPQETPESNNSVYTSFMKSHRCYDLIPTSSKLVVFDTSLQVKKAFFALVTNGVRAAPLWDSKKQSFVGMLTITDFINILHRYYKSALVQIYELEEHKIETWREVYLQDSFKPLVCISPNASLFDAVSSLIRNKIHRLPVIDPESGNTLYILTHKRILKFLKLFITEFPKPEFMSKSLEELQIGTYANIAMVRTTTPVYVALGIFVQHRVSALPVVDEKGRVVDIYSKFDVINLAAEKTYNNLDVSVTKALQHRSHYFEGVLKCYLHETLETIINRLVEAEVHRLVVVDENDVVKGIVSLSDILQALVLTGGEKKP", "T3 sequence (Q9Y478 whole entry partner)": "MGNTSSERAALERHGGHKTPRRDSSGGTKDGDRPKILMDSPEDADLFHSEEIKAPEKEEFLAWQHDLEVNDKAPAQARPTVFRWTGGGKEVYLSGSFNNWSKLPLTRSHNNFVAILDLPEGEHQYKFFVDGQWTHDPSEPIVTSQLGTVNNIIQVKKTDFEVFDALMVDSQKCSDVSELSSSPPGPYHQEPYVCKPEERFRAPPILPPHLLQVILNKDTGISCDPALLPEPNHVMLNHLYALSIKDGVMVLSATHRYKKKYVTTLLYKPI", "test": "biochemical", "set-up": "Kinase selectivity panel of 81 human kinases, ADP-Glo or HTRF, per cent inhibition at 1 uM", "procedure": "as §1"}, "NEK2": {"biological_target": "NEK2 (Homo sapiens, UniProt P51955)", "test": "biochemical", "set-up": "Kinase selectivity panel of 81 human kinases, ADP-Glo or HTRF, per cent inhibition at 1 uM", "procedure": "as §1"}, "IRAK1": {"biological_target": "IRAK1 (Homo sapiens, UniProt P51617)", "sequence (P51617 whole entry)": "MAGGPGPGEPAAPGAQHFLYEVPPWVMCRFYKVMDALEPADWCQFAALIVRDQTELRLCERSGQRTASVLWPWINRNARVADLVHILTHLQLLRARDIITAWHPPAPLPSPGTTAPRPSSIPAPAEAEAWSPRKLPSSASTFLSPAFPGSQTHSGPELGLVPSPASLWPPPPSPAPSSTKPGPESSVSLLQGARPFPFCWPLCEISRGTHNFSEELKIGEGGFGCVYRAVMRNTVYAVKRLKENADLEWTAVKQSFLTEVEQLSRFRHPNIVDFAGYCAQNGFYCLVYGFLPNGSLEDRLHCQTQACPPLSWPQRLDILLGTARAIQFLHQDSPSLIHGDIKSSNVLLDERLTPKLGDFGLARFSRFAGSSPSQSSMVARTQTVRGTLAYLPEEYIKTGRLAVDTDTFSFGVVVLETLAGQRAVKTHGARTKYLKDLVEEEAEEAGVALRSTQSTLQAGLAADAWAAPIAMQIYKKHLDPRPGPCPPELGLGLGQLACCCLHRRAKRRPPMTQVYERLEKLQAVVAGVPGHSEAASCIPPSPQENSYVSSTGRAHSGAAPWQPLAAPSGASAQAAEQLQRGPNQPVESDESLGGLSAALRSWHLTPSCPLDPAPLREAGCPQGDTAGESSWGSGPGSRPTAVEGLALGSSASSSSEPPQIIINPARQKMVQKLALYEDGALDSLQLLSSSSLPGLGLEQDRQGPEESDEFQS", "test": "biochemical", "set-up": "Kinase selectivity panel of 81 human kinases, ADP-Glo or HTRF, per cent inhibition at 1 uM", "procedure": "as §1"}, "AKT1": {"biological_target": "AKT1 (Homo sapiens, UniProt P31749)", "sequence (P31749 whole entry)": "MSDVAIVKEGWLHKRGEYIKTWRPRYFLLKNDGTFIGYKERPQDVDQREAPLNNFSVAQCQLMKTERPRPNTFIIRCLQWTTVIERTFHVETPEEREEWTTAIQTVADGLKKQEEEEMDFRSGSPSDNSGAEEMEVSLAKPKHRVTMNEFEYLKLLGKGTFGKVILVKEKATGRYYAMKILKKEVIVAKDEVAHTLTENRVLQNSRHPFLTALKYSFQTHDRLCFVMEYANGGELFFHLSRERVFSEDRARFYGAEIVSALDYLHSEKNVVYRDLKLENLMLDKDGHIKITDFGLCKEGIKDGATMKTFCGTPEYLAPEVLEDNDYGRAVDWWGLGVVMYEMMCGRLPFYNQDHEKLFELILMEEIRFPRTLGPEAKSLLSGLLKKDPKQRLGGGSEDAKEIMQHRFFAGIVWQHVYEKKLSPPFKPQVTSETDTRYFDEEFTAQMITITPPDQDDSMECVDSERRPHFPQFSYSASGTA", "test": "biochemical", "set-up": "Kinase selectivity panel of 81 human kinases, ADP-Glo or HTRF, per cent inhibition at 1 uM", "procedure": "as §1"}, "TGFβR1": {"biological_target": "T4, TGFβR1 (Homo sapiens, UniProt P36897)", "T4 construct": "gene TGFBR1", "test": "biochemical", "set-up": "Kinase selectivity panel of 81 human kinases, ADP-Glo or HTRF, per cent inhibition at 1 uM", "procedure": "as §1"}, "ROCK1": {"biological_target": "ROCK1 (Homo sapiens, UniProt Q13464)", "test": "biochemical", "set-up": "Kinase selectivity panel of 81 human kinases, ADP-Glo or HTRF, per cent inhibition at 1 uM", "procedure": "as §1"}, "Erk2": {"biological_target": "T5, Erk2 (Homo sapiens, UniProt P28482)", "T5 construct": "gene MAPK1", "test": "biochemical", "set-up": "Kinase selectivity panel of 81 human kinases, ADP-Glo or HTRF, per cent inhibition at 1 uM", "procedure": "as §1"}, "p70S6K": {"biological_target": "T6, p70S6K (Homo sapiens, UniProt P23443)", "T6 construct": "gene RPS6KB1", "T6 sequence (P23443 whole entry)": "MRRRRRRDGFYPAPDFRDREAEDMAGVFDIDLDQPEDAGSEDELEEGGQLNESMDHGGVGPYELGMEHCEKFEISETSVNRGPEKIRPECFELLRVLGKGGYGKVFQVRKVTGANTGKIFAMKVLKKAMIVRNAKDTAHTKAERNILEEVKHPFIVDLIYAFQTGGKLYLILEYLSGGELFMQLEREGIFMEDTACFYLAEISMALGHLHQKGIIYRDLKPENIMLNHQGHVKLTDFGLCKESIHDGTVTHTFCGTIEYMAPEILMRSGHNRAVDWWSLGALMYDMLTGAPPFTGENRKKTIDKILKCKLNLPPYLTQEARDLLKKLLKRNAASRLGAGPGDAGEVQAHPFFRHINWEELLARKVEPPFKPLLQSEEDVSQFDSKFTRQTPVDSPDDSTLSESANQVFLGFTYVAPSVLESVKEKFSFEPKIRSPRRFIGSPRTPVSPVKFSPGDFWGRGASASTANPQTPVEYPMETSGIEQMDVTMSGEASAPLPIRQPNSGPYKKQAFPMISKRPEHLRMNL", "test": "biochemical", "set-up": "Kinase selectivity panel of 81 human kinases, ADP-Glo or HTRF, per cent inhibition at 1 uM", "procedure": "as §1"}, "CK1γ2": {"biological_target": "T7, CK1γ2 (Homo sapiens, UniProt P78368)", "T7 construct": "gene CSNK1G2", "T7 sequence (P78368 whole entry)": "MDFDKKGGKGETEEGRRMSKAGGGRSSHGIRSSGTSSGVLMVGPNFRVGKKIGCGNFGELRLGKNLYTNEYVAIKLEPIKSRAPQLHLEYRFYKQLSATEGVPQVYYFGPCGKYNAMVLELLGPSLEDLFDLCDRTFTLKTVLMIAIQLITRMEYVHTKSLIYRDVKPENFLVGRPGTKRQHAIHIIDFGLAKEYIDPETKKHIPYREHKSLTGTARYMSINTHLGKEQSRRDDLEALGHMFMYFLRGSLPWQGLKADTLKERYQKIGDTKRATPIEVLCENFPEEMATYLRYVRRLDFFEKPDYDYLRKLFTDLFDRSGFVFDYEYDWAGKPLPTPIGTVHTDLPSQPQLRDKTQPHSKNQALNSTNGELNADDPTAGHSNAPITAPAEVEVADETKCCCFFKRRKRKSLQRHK", "test": "biochemical", "set-up": "Kinase selectivity panel of 81 human kinases, ADP-Glo or HTRF, per cent inhibition at 1 uM", "procedure": "as §1"}, "EPHA2": {"biological_target": "EPHA2 (Homo sapiens, UniProt P29317)", "test": "biochemical", "set-up": "Kinase selectivity panel of 81 human kinases, ADP-Glo or HTRF, per cent inhibition at 1 uM", "procedure": "as §1"}, "SGK": {"biological_target": "T8, SGK (Homo sapiens, UniProt O00141)", "T8 construct": "gene SGK1", "test": "biochemical", "set-up": "Kinase selectivity panel of 81 human kinases, ADP-Glo or HTRF, per cent inhibition at 1 uM", "procedure": "as §1"}, "RIPK1": {"biological_target": "RIPK1 (Homo sapiens, UniProt Q13546)", "test": "ADP-Glo kinase assay with recombinant RIPK1 ([…] ATP, MBP substrate); binding curve also shown in Fig. 4A", "format": "biochemical"}}}
{"smiles": "Nc1cn2cc(-c3cnc4c(c3)N(C(=O)OC3CCCCC3)CCO4)ccc2n1", "note": "[Zharp1-163]", "values": [{"measurement": "inhibition at 1 µM", "setting": "CHK1; replicate Data1", "result": 16.8, "unit": "%"}, {"measurement": "inhibition at 1 µM", "setting": "CHK1; replicate Data2", "result": 10.4, "unit": "%"}, {"measurement": "inhibition at 1 µM", "setting": "PDGFRα; replicate Data1", "result": -2.74, "unit": "%"}, {"measurement": "inhibition at 1 µM", "setting": "PDGFRα; replicate Data2", "result": 4.62, "unit": "%"}, {"measurement": "inhibition at 1 µM", "setting": "AMPKα1/β1/γ1; replicate Data1", "result": 12.1, "unit": "%"}, {"measurement": "inhibition at 1 µM", "setting": "AMPKα1/β1/γ1; replicate Data2", "result": 6.96, "unit": "%"}, {"measurement": "inhibition at 1 µM", "setting": "NEK2; replicate Data1", "result": -4.5, "unit": "%"}, {"measurement": "inhibition at 1 µM", "setting": "NEK2; replicate Data2", "result": 1.76, "unit": "%"}, {"measurement": "inhibition at 1 µM", "setting": "IRAK1; replicate Data1", "result": 1.3, "unit": "%"}, {"measurement": "inhibition at 1 µM", "setting": "IRAK1; replicate Data2", "result": -3.6, "unit": "%"}, {"measurement": "inhibition at 1 µM", "setting": "AKT1; replicate Data1", "result": -1.95, "unit": "%"}, {"measurement": "inhibition at 1 µM", "setting": "AKT1; replicate Data2", "result": 6.27, "unit": "%"}, {"measurement": "inhibition at 1 µM", "setting": "TGFβR1; replicate Data1", "result": 7.16, "unit": "%"}, {"measurement": "inhibition at 1 µM", "setting": "TGFβR1; replicate Data2", "result": 7.76, "unit": "%"}, {"measurement": "inhibition at 1 µM", "setting": "ROCK1; replicate Data1", "result": 2.59, "unit": "%"}, {"measurement": "inhibition at 1 µM", "setting": "ROCK1; replicate Data2", "result": 4.57, "unit": "%"}, {"measurement": "inhibition at 1 µM", "setting": "Erk2; replicate Data1", "result": 17.9, "unit": "%"}, {"measurement": "inhibition at 1 µM", "setting": "Erk2; replicate Data2", "result": 10.3, "unit": "%"}, {"measurement": "inhibition at 1 µM", "setting": "p70S6K; replicate Data1", "result": -3.27, "unit": "%"}, {"measurement": "inhibition at 1 µM", "setting": "p70S6K; replicate Data2", "result": -3.18, "unit": "%"}, {"measurement": "inhibition at 1 µM", "setting": "CK1γ2; replicate Data1", "result": -3.03, "unit": "%"}, {"measurement": "inhibition at 1 µM", "setting": "CK1γ2; replicate Data2", "result": 8.14, "unit": "%"}, {"measurement": "inhibition at 1 µM", "setting": "EPHA2; replicate Data1", "result": -8.55, "unit": "%"}, {"measurement": "inhibition at 1 µM", "setting": "EPHA2; replicate Data2", "result": -9.14, "unit": "%"}, {"measurement": "inhibition at 1 µM", "setting": "SGK; replicate Data1", "result": 2.39, "unit": "%"}, {"measurement": "inhibition at 1 µM", "setting": "SGK; replicate Data2", "result": 0.81, "unit": "%"}, {"measurement": "IC50", "setting": "RIPK1", "result": "~406", "unit": "nM"}]}
